Source: PubChem BioAssay (NCI)
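Following 48 hours of exposure in 96-well plates, responses at five concentrations were used to interpolate endpoints linearly. At the GI50, growth is halved. TGI denotes the concentration required for complete inhibition of growth.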

Key:
Test in all cases: NCI anticancer screen, dose series, 48 h
SNB-75 CNS = test system: SNB-75 CNS
CAKI-1 renal = test system: CAKI-1 renal
SK-MEL-28 melanoma = test system: SK-MEL-28 melanoma
M14 melanoma = test system: M14 melanoma
RXF 393 renal = test system: RXF 393 renal
OVCAR-3 ovarian = test system: OVCAR-3 ovarian
OVCAR-5 ovarian = test system: OVCAR-5 ovarian
HOP-92 NSCLC = test system: HOP-92 NSCLC
SF-539 CNS = test system: SF-539 CNS
NCI-H23 lung = test system: NCI-H23 lung

Compound | GI50 (SNB-75 CNS) | TGI (SNB-75 CNS) | GI50 (CAKI-1 renal) | TGI (CAKI-1 renal) | GI50 (SK-MEL-28 melanoma) | TGI (SK-MEL-28 melanoma) | GI50 (M14 melanoma) | TGI (M14 melanoma) | GI50 (RXF 393 renal) | TGI (RXF 393 renal) | GI50 (OVCAR-3 ovarian) | TGI (OVCAR-3 ovarian) | GI50 (OVCAR-5 ovarian) | TGI (OVCAR-5 ovarian) | GI50 (HOP-92 NSCLC) | TGI (HOP-92 NSCLC) | GI50 (SF-539 CNS) | TGI (SF-539 CNS) | TGI (NCI-H23 lung) | GI50 (NCI-H23 lung)
CCCCC1(CN2CCOCC2)S/C(=N/c2nc(CC(=O)OCC)cs2)NC1=O (stereo unspecified) | 29.4 µM | > 100 µM | 29.9 µM | > 100 µM | 38.4 µM | > 100 µM | 22.8 µM | 67.3 µM | 27.6 µM | 86.1 µM | 21200 nM | 67.7 µM | 35.4 µM | > 100 µM | 32.9 µM | > 100 µM | 29 µM | 89.9 µM |  | 
N=C(N)SCc1cccc(-c2nc3ccccc3c(=O)o2)c1 |  | > 100 µM |  | > 100 µM |  | > 100 µM |  | > 100 µM |  | > 100 µM |  | > 100 µM |  | > 100 µM |  | > 100 µM |  | > 100 µM | > 100 µM | 
CCOC(=O)c1c[nH]c2oc(/C=N/N3CC(CN4CCOCC4)OC3=O)cc2c1=O (stereo unspecified) |  | > 100 µM |  | > 100 µM |  | > 100 µM |  | > 100 µM |  | > 100 µM |  | > 100 µM |  | > 100 µM |  | > 100 µM |  | > 100 µM | > 100 µM | 
COC(=O)CCC(=O)CC1CC(=O)C2CCCN12 (stereo unspecified) |  | > 100 µM |  | > 100 µM |  | > 100 µM |  | > 100 µM |  | > 100 µM |  | > 100 µM |  | > 100 µM |  | > 100 µM |  | > 100 µM | > 100 µM | 
Cc1c(C2=C(Br)C(=O)N(C)C2=O)c(=O)n(C)c(=O)n1C |  | > 100 µM |  | 34.8 µM |  | > 100 µM |  | > 100 µM |  | 29 µM |  | > 100 µM |  | > 100 µM |  | 34.4 µM |  | 34.6 µM | 42.9 µM | 
COc1ccc(C2c3cc(OC)c(OC)cc3C(Cc3ccc([N+](=O)[O-])cc3)C2c2ccc([N+](=O)[O-])cc2)cc1OC (stereo unspecified) |  | > 100 µM |  | > 100 µM |  | > 100 µM |  | > 100 µM |  | > 100 µM |  | > 100 µM |  | > 100 µM |  | > 100 µM |  | > 100 µM | > 100 µM | 
C=C1C(=O)O[C@H]2/C=C(/C)C3=CC(=O)[C@@](C)(C[C@@H](OC(=O)/C(C)=C\C)C12)O3 (stereo partly specified) |  | 23.9 µM |  | 0.432 µM |  |  |  | > 28.8 µM |  | 1.5 µM | 1240 nM | 5.04 µM |  | 6.19 µM |  | 2.07 µM |  | 8.22 µM | 10.3 µM | 
COc1ccc2c(c1)C(C)Cc1c(ncnc1-n1c(C)nc3ccccc31)N2C (stereo unspecified) | 2.41 µM | 11.1 µM | 4.48 µM | 78.8 µM | 11.1 µM | 26.2 µM | 2.62 µM | 15.4 µM | 2.83 µM | 9.21 µM | 2530 nM | 8.79 µM | 13 µM | 39.8 µM | 3.34 µM | 17.4 µM | 2.34 µM | 6.92 µM | 18.5 µM | 3.08 µM
COC(=O)/C(C)=C/[N+](=O)[O-] |  | 30.1 µM |  | 8.14 µM |  |  |  | 29.2 µM |  | 35.6 µM |  | 29.6 µM |  | 35.4 µM |  | 22.8 µM |  | 33.2 µM | 41.2 µM | 
CN[C@@H](C)[C@H](NC)c1ccccc1 |  | > 100 µM |  | > 100 µM |  | > 100 µM |  | > 100 µM |  | > 100 µM |  | > 100 µM |  |  |  | > 100 µM |  | > 100 µM | > 100 µM | 
